Here are results for 28 compounds from patent USRE49816E1, “Dipeptides as inhibitors of human immunoproteasomes” (CORNELL UNIVERSITY, priority 2014, dated 2024).

One series concerns the target hu i-20S β5i-subunit (Homo sapiens, UniProt P20618+P28062). Briefly: N,C-capped dipeptides IC50, Ac-ANW-AMC fluorescence assay. It is filed as biochemical. The settings on record: for SI (selectivity index): Hu c-20S over Hu i-20S.
The next series deals with Karpas 1106p cells. Briefly: Cytotoxicity (LD50) against Karpas lymphoma cells. It is filed as cell-based, human. The conditions noted are these: Table 3. An excerpt:
Table 3 lists the inhibition kinetic parameters, selectivity index, and calculated log Ps of selected dipeptides.

A further series addresses hu c-20S β5c-subunit (Homo sapiens, UniProt P20618+P28074). As to the kind of experiment: N,C-capped dipeptides IC50, succ-LLVY-AMC fluorescence assay. It is filed as biochemical.

Description for hu c-20S β5c-subunit: (§1) All inhibitory assays for N,C capped dipeptides were performed in a black solid-bottom 96-well plate. In general, compound plates were prepared starting from 10 mM in 3× series dilution to 15 μM. 1 μl of DMSO stock was transferred to a black 96-well plate and 100 μL of reaction mixture were added 15 μM N-acetyl-Alanine-Asparagine-Tryptophan-7-amino-4-methylcourmarin (Ac-ANW-AMC) or 25 μM succinyl-Leucine-Leucine-Valine-Tyrosine-7-amino-4-methyl-courmarin (succ-LLVY-AMC), 0.4 nM hu i-20S β5i-subunit or 0.2 nM hu c-20S β5c-subunit, 0.02% SDS, 1% BSA, 0.5 mM EDTA in 20 mM HEPES buffer at pH7.5. The plates were then spun at 1000 rpm for 1 minute, and the fluorescence units of each well were recorded at λex=360 nm, λem=460 nm for 2 hours. The slopes of the initial linear range of the time course were used to calculate the velocity, and relative activities were normalized to the velocities of the DMSO control.
Description for hu i-20S β5i-subunit: as §1

As to `COC[C@H](NC(=O)CCc1ccccc1)C(=O)N[C@@H](C)C(=O)NCc1cccc2ccccc12` [DPLG-2048, (S)-3-methoxy-N—((S)-1-((naphthalen-1-ylmethyl)amino)-1-oxopropan-2-yl)-2-(3-phenylpropanamido)propanamide], the IC50 on hu i-20S β5i-subunit was 34900 nM; against hu c-20S β5c-subunit, 59800 nM. Further, the “SI (selectivity index)” value at hu i-20S β5i-subunit is on record as 1.7. In the series on Karpas 1106p cells, this compound returned an LD50 greater than 100 µM.
`COC[C@H](NC(=O)[C@H](CC(=O)NOC(C)(C)C)NC(=O)Cc1ccccc1)C(=O)NCc1cccc2ccccc12` [DPLG-2222, (S)—N^4-(tert-butoxy)-N^1—((S)-3-methoxy-1-((naphthalen-1-ylmethyl)amino)-1-oxopropan-2-yl)-2-(2-phenylacetamido)succinamide]: on hu i-20S β5i-subunit, inhibition was half-maximal at 11 nM (IC50) and the “SI (selectivity index)” value worked out at 70. The compound also registered an LD50 in the series on Karpas 1106p cells greater than 100 µM. In addition, half-maximal inhibition on hu c-20S β5c-subunit (IC50) was put at 738 nM.
In the series on Karpas 1106p cells, `C[C@H](NC(=O)[C@H](CC(=O)NOC(C)(C)C)NC(=O)c1cnccn1)C(=O)NCc1cccc2ccccc12` [DPLG-2098] had an LD50 greater than 100 µM.
Same read-out and setting: then `COC[C@H](NC(=O)[C@H](CC(=O)NC(C)(C)C)NC(=O)CCc1ccccc1)C(=O)NCc1cccc2ccccc12` [DPLG-2230, (S)—N^4-(tert-butyl)-N^1—((S)-3-methoxy-1-((naphthalen-1-ylmethyl)amino)-1-oxopropan-2-yl)-2-(3-phenylpropanamido)succinamide], with 1.11 µM.
For the compound `CC(=O)N[C@@H](Cc1ccc(F)cc1)C(=O)NCc1cccc2ccccc12` [DPLG-2109], on hu i-20S β5i-subunit, the IC50 was found to be 57100 nM and the “SI (selectivity index)” value is listed as greater than 2. Further, the LD50 in the series on Karpas 1106p cells was greater than 100 µM. On hu c-20S β5c-subunit, this compound gave an IC50 greater than 100000 nM.
As to `CC(C)(C)NC(=O)C[C@H](NC(=O)CCc1ccccc1)C(=O)N[C@@H](Cc1ccc(F)cc1)C(=O)NCc1cccc(-c2ccccc2)c1` [DPLG-21050], the values for the IC50 at hu i-20S β5i-subunit and against hu c-20S β5c-subunit were 26 nM and greater than 100000 nM, respectively. Besides, the “SI (selectivity index)” value at hu i-20S β5i-subunit is on record as greater than 3846.
On to `CC(C)(C)NC(=O)C[C@H](NC(=O)CCc1ccccc1)C(=O)N[C@@H](Cc1ccc(F)cc1)C(=O)NCc1cccc2ccccc12` [DPLG-3066], for which, at hu i-20S β5i-subunit, the midpoint of inhibition, the IC50, lay at 5.3 nM and the “SI (selectivity index)” value is on record as greater than 19000. Also, in the series on Karpas 1106p cells, the LD50 is 0.198 µM. At hu c-20S β5c-subunit, the IC50 was greater than 100000 nM.
In the series on Karpas 1106p cells, `C[C@H](NC(=O)[C@H](CC(=O)NC(C)(C)C)NC(=O)C(=O)c1c[nH]c2ccccc12)C(=O)NCc1cccc2ccccc12` [DPLG-3053] returned an LD50 of 0.22 µM.
Take `COC[C@H](NC(=O)[C@H](CC(=O)NOC(C)(C)C)NC(=O)CN1CCOCC1)C(=O)NCc1cccc2ccccc12` [DPLG-2143, (S)—N^4-(tert-butoxy)-N^1—((S)-3-methoxy-1-((naphthalen-1-ylmethyl)amino)-1-oxopropan-2-yl)-2-(2-morpholinoacetamido)succinamide]: on hu i-20S β5i-subunit, the midpoint of inhibition, the IC50, lay at 250 nM and the “SI (selectivity index)” value came out at 78. Further, in the series with Karpas 1106p cells, the LD50 is greater than 100 µM. The same compound returned a half-maximal inhibitory concentration (IC50) on hu c-20S β5c-subunit of 19600 nM.
Taken in the same sequence, the figures for `C[C@H](NC(=O)[C@H](CC(=O)NOC(C)(C)C)NC(=O)CCc1ccccc1)C(=O)NCc1ccnc2ccccc12` [DPLG-2068, (S)—N^4-(tert-butoxy)-N^1—((S)-1-oxo-1-((quinolin-4-ylmethyl)amino)propan-2-yl)-2-(3-phenylpropanami-do)succinamide] were 3060 nM, 9.3, greater than 100 µM and 28400 nM.
In the case of `CC(C)(C)NC(=O)C[C@H](NC(=O)CCc1ccccc1)C(=O)N[C@@H](Cc1ccncc1)C(=O)NCc1cccc2ccccc12` [DPLG-21033], the figures for the IC50 against hu i-20S β5i-subunit and against hu c-20S β5c-subunit were 5.3 nM and 438 nM, respectively. In addition, the “SI (selectivity index)” value on hu i-20S β5i-subunit was 83.
For `CC(C)[C@H](NC(=O)[C@H](CC(=O)NOC(C)(C)C)NC(=O)CCc1ccccc1)C(=O)NCc1cccc2ccccc12` [DPLG-2224, (S)—N^4-(tert-butoxy)-N^1—((S)-3-methyl-1-((naphthalen-1-ylmethyl)amino)-1-oxobutan-2-yl)-2-(3-phenylpropanamido)succinamide], the IC50 turned out to be 4.3 nM against hu i-20S β5i-subunit and 228 nM on hu c-20S β5c-subunit. For the same compound, at hu i-20S β5i-subunit, the “SI (selectivity index)” value came to 53. In the series on Karpas 1106p cells, this compound displayed an LD50 greater than 100 µM.
In the series on Karpas 1106p cells, `COC[C@H](NC(=O)[C@H](CC(=O)NC(C)(C)C)NC(=O)c1cc(C)on1)C(=O)NCc1cccc2ccccc12` [DPLG-2244, (S)—N^4-(tert-butyl)-N^1((S)-3-methoxy-1-((naphthalen-1-ylmethyl)amino)-1-oxopropan-2-yl)-2-(5-methylisoxazole-3-carboxamido)succinamide] yielded an LD50 of 2.20 µM.
For the compound `C[C@H](NC(=O)[C@H](CCC(=O)NC(C)(C)C)NC(=O)CCc1ccccc1)C(=O)NCCc1cccc2ccccc12` [DPLG-3012], at hu i-20S β5i-subunit, the IC50 was 930 nM and the “SI (selectivity index)” value is 10.4. The LD50 with Karpas 1106p cells was determined as 4.16 µM. Also, the half-maximal inhibitory concentration (IC50) against hu c-20S β5c-subunit came out at 9650 nM.
Consider `COC[C@H](NC(=O)[C@H](CC(=O)NOC(C)(C)C)NC(=O)CCc1ccccc1)C(=O)NCc1cccc2cccnc12` [DPLG-2220], for which, at hu i-20S β5i-subunit, the midpoint of inhibition, the IC50, lay at 70 nM and the “SI (selectivity index)” value is on record as 19. For the same compound, the LD50 in the series on Karpas 1106p cells was 6.27 µM. The compound further showed an IC50 at hu c-20S β5c-subunit of 1350 nM.
As for `Cc1ccc(S(=O)(=O)N[C@@H](CCC(=O)NC(C)(C)C)C(=O)N[C@@H](C)C(=O)NOc2ccccc2)cc1` [DPLG-3017], on hu i-20S β5i-subunit, the midpoint of inhibition, the IC50, lay at 99 nM and the “SI (selectivity index)” value was determined as 6. The compound further gave an LD50 in the series on Karpas 1106p cells of 6.33 µM. The compound further showed an IC50 at hu c-20S β5c-subunit of 600 nM.
Taken in the same sequence, the figures for `CC(C)(C)NC(=O)C[C@H](NC(=O)C(=O)c1c[nH]c2ccccc12)C(=O)N[C@@H](Cc1ccc(F)cc1)C(=O)NCc1cccc2ccccc12` [DPLG-3084] were 1.4 nM, 26, 0.084 µM and 37 nM.
As to `COC[C@H](NC(=O)[C@H](CC(=O)NC1COC1)NS(=O)(=O)c1ccc(C)cc1)C(=O)NCc1cccc2ccccc12` [DPLG-2229], on hu i-20S β5i-subunit, half-maximal inhibition (IC50) was put at 69 nM and the “SI (selectivity index)” value was 236. The same compound displayed an LD50 with Karpas 1106p cells greater than 100 µM. The same compound came in with an IC50 at hu c-20S β5c-subunit of 19300 nM.
`COC[C@H](NC(=O)[C@H](CC(=O)NOC(C)(C)C)NC(=O)CCCc1ccccc1)C(=O)NCc1cccc2ccccc12` [DPLG-2223, (S) N^4-(tert-butoxy)-N^1—((S)-3methoxy-1-((naphthalen-1-ylmethyl)amino)-1-oxopropan-2-yl)-2-(4-phenylbutanamido)succinamide]: the values for the IC50 against hu i-20S β5i-subunit and against hu c-20S β5c-subunit were 6.5 nM and 767 nM, respectively. Moreover, at hu i-20S β5i-subunit, the “SI (selectivity index)” value amounted to 118. In the series with Karpas 1106p cells, this compound registered an LD50 of 4.47 µM.
With `COC[C@H](NC(=O)[C@H](CC(=O)NOC(C)(C)C)NC(=O)CCc1ccccc1)C(=O)NCc1cccc(OC)c1OC` [DPLG-2211], on hu i-20S β5i-subunit, the IC50 amounted to 245 nM and the “SI (selectivity index)” value is 5. The compound further came in with an LD50 in the series with Karpas 1106p cells of 4.18 µM. The same compound yielded an IC50 on hu c-20S β5c-subunit of 1280 nM.
On to `COC[C@H](NC(=O)CCc1ccccc1)C(=O)N[C@@H](Cc1ccc(F)cc1)C(=O)NCc1cccc2ccccc12` [DPLG-2054, (S)-3-(4-fluorophenyl)-2-((S)-3-methoxy-2-(3-phenylpropanamido)propanamido)-N-(naphthalen-1-ylmethyl)propanamide], for which, on hu i-20S β5i-subunit, the IC50 was greater than 100000 nM and the “SI (selectivity index)” value is reported as less than 0.8. The compound also registered an LD50 with Karpas 1106p cells greater than 100 µM. The same compound gave an IC50 at hu c-20S β5c-subunit of 75800 nM.
In the same order, the values of `C[C@H](NC(=O)[C@H](CCC(=O)NC(C)(C)C)NC(=O)CCc1ccccc1)C(=O)NOc1ccccc1` [DPLG-3013] are 230 nM, 2.9, 11.03 µM and 660 nM.
Consider `CC(C)(C)NC(=O)C[C@H](NC(=O)CCc1ccccc1)C(=O)N[C@@H](Cc1ccc(F)cc1)C(=O)NCc1ccc(-c2ccccc2)cc1` [DPLG-21049], for which, at hu i-20S β5i-subunit, the IC50 is 133 nM and the “SI (selectivity index)” value turned out to be 5. The IC50 on hu c-20S β5c-subunit was determined as 700 nM.
Take `COC[C@H](NC(=O)[C@H](CC(=O)NOC(C)(C)C)NC(=O)CCc1ccccc1)C(=O)NCc1cccc2c1NCCC2` [DPLG-2226, (S)—N^4-(tert-butoxy)-N^−1—((S)-3-methoxy-1-oxo-1-(((1,2,3,4-tetrahydroquinolin-8-yl)methyl)amino)propan-2-yl)-2-(3-phenylpropanamido)succinamide]: the IC50 was 1150 nM against hu i-20S β5i-subunit and 78100 nM against hu c-20S β5c-subunit. Further, the “SI (selectivity index)” value on hu i-20S β5i-subunit turned out to be 68. For the same compound, the LD50 in the series with Karpas 1106p cells is greater than 100 µM.
Taken in the same sequence, the figures for `COC[C@H](NC(=O)[C@H](CC(=O)NOC(C)(C)C)NC(=O)c1cc(C)on1)C(=O)NCc1cccc2ccccc12` [DPLG-2144, (S)—N^4-(tert-butoxy)-N^1—((S)-3-methoxy-1-((napthalen-1-ylmethyl)amino)-1-oxopropan-2-yl)-2-(5-methylisoxazole-3-carboxamido)succinamide] were 9 nM, 620 nM, 69 and 1.47 µM.
Regarding `Cc1ccc(S(=O)(=O)N[C@@H](CCC(=O)NC(C)(C)C)C(=O)N[C@@H](C)C(=O)NCc2cccc(C(F)(F)F)c2)cc1` [DPLG-3014], the IC50 was 25 nM on hu i-20S β5i-subunit and 420 nM at hu c-20S β5c-subunit. The “SI (selectivity index)” value at hu i-20S β5i-subunit is reported as 17. The same compound registered an LD50 in the series on Karpas 1106p cells of 0.96 µM.
Taken in the same sequence, the figures for `CC(C)(C)NC(=O)CC[C@H](NC(=O)CCc1ccccc1)C(=O)N[C@@H](Cc1ccc(F)cc1)C(=O)NCc1cccc2ccccc12` [DPLG-3083] were 3.3 nM, 300 nM, 90 and 1.20 µM.
`C[C@H](NC(=O)[C@H](CC(=O)NOC(C)(C)C)NC(=O)Cc1ccccc1)C(=O)NCc1cccc2ccccc12` [DPLG-2142, (S)—N4-(tert-butoxy)-N1-((S)-1-((naphthalen-1-ylmethyl)amino)-1-oxopropan-2-yl)-2-(2-phenylacetamido)succinamide]: in the series with Karpas 1106p cells, the LD50 came out at 9.1 µM.
